Measured values as given in US20180021234A1, “Oral Care Compositions and Methods of Use” (Colgate-Palmolive Company, priority 2015, published 2018).

What was measured:
[1] = tested on: biofilms formed from native saliva on hydroxyapatite (HAP) disks; experiment: Active-attachment biofilm model, lactic acid production (residual metabolic activity); format: cell-based; settings: for metabolic activity relative to control groups (water) and variable groups: Example 5
Description: (§1) The active-attachment biofilm model has been previously described by Extercate et al. Caries Research 2010; 44: 372-379, the contents of which are incorporated by reference herein. The biofilm model consists of a metal lid with 24 clamps carrying hydroxyapatite (HAP) disks. The model is inoculated in 24-well plates with native saliva. Biofilms were formed via active recruitment of bacteria onto free-hanging HAP disks.
(§2) Treatment is performed after formation of a 24 h biofilm. Lactic acid production is determined to assess the residual metabolic activity of biofilms after repeated exposure to test products. The assay is conducted using a L-Lactate Assay Kit according to the manufacturer's protocol (Cayman Chemical Company, Cat. No. 700510).
The anti-metabolic activity of arginine alone and combined with zinc on bacteria in solutions and in toothpastes is measured by lactic acid production during a 3-hour window after the last treatment. The bacterial metabolic activity, as measured by lactic acid production, decreases in (toothpaste) groups with:
The antibacterial activity of serine and lysine is assessed individually and in combination with zinc and determined by lactic acid production during a 3-hour window after the last treatment according to Example 1.
The anti-metabolic activity of serine and lysine individually, and in combination with zinc, are tested. Using the biofilm model described in Example 1, antibacterial activity of serine and lysine is tested individually and in combination with zinc.

[2] = tested on: biofilms formed from native saliva on hydroxyapatite (HAP) disks; experiment: Active-attachment biofilm model, colony forming units (live counts); format: cell-based; settings: for number of CFUs relative to control solutions (water) and variable groups: Example 4; for number of CFUs relative to control solutions (water) and variable groups / Log CFU/ml: solutions; for Log CFU/ml: Example 4 (serine, lysine, with or without zinc)
Description: as §1, §2
Colony forming units (CFUs) are determined to assess the anti-bacterial efficacy of test solutions after repeated exposure to biofilms. HAP disks are removed from the lid and transferred to 1.5 ml CPW for sonication. CFUs are determined by colony counting. Statistical analysis was performed using Minitab 16 Software. ANOVA and Tukey test were performed on available CFU counts and lactic acid values.
Anti-bacterial efficacy of arginine alone and in combination with zinc in solutions and in toothpastes is tested by live counts using the biofilm model described in Example 1. The approximate number of live counts (CFUs) are as follows: […]

[3] = solutions, Example 5 (serine, lysine, with or without zinc)
[4] = solution, lactic acid production during a 3-hour window after the last treatment

Row | Structure (SMILES) | metabolic activity relative to control groups (water) and variable groups ([1]; solutions) | Lactate [1, 3] [mM] | number of CFUs relative to control solutions (water) and variable groups [2] | Log CFU/ml [2] [Log CFU/ml] | Lactate [1, 4] [mM] | CFU/ml ([2]; solution, live counts, biofilm model of Example 1) [Log CFU/ml]
1 | N[C@@H](CO)C(=O)O [4% serine, serine] | do not demonstrate a decrease in metabolic activity | 2.4 | do not demonstrate a decrease | 9.45 |  | 
2 | [O-2].[Zn+2] [0.5% zinc oxide, zinc oxide] |  |  |  |  | 6.25 | 9.65
3 | O=C([O-])CC(O)(CC(=O)[O-])C(=O)[O-].O=C([O-])CC(O)(CC(=O)[O-])C(=O)[O-].[Zn+2].[Zn+2].[Zn+2] [0.25% zinc citrate, zinc citrate] |  |  |  |  | 6.0 | 
4 | NCCCC[C@H](N)C(=O)O [4% lysine, lysine] | do not demonstrate a decrease in metabolic activity | 2.7 | do not demonstrate a decrease | 9.37 |  | 
